{
  "source": "patent US20250382261A1",
  "about": "(The Broad Institute, Inc., priority 2021, published 2025)",
  "key": {"in vitro": {"test": "in vitro", "settings": "human"}, "LPS from E. coli EH100": {"test_system": "LPS from E. coli EH100", "test": "BODIPY-Cadaverine LPS displacement assay", "type": "binding", "settings": "BODIPY-cadaverine displacement from E. coli EH100 LPS", "method": "BODIPY-Cadaverine LPS displacement assay. The BODIPY-cadaverine LPS displacement assay was performed as previously described (Wood et al. 2004. Combinatorial Chemistry & High Throughput Screening, 7: 239-49; Klobucar et al. 2021. ACS Chemical Biology, 16: 929-42). A solution of BODIPY-cadaverine (2.25 μM) and LPS from E. coli EH100 (5.25 μM) in Tris-HCl buffer (50 mM, pH 7.4) was prepared. 0.5 μL of compound and 49.5 μL of the Tris-HCl buffer with BODIPY-cadaverine and LPS solution were added to a Corning nonbinding surface black 384-well polystyrene plate. Fluorescence intensity was measured immediately with an excitation wavelength of 580 nm and an emission wavelength of 620 nm. EC50 values were calculated using a three-parameter logistic curve in GraphPad Prism 9."}, "A. baumannii ATCC 17978 [1]": {"test_system": "A. baumannii ATCC 17978", "settings": "murine systemic A. baumannii infection, Stokes et al. 2017; cited from earlier work"}, "in vivo": {"test": "in vivo", "settings": "female, C57BL/6, mouse, plasma, iv, 1 mg/kg", "description": "(§4) Plasma samples were taken from 3 mice per time point (5, 15, 30 min; 1, 2, 4, 6 and 8 h post-dose). An aliquot of 2 μL sample was protein precipitated with 60 μL methanol, the mixture was vortex-mixed well and centrifuged at 13000 rpm for 10 min at 4° C. 2 μL supernatant was injected for LC-MS/MS analysis. The mean plasma concentration and the standard deviation from all 3 animals within each time point were calculated. PK parameters were calculated with a non-compartmental analysis. The mean plasma concentrations from all 3 mice at each time point were used in the calculations."}, "P. aeruginosa (PA01)": {"test_system": "P. aeruginosa (PA01)", "test": "Checkerboard potentiation assay with novobiocin", "type": "cell-based", "method": "(§1) Bacterial strains and culture conditions. The following bacterial strains were used within this study; A. baumannii (ATCC 17978), K. pneumoniae (ATCC 43816), K. pneumoniae (ATCC 43816, expressing pGDP2:mcr-1), P. aeruginosa (PA01). Bacterial growth was in cation-adjusted Mueller-Hinton broth (MHB) at 37° C., and inoculum was prepared according to CLSI protocol (CLSI 2015).\n(§2) Potentiation assays. Checkerboard analyses were conducted with each drug serially diluted at eight concentrations to create an 8×8 matrix. At least two biological replicates were done for each combination, and the means were used for FIC calculation. The FIC for each drug was calculated by dividing the concentration of the drug in the presence of codrug in a combination for a well showing <10% growth by the MIC for that drug alone. The FIC index (FICI) is the sum of the two FICs, with an FIC index≤0.5 deemed synergistic.\n(§3) To probe the spectrum of activity of the present analogs beyond A. baumannii, their interactions with novobiocin were assessed against the high-priority Gram-negative pathogens Klebsiella pneumoniae and P. aeruginosa (FIG. 5)."}, "[2]": {"test_system": "K. pneumoniae (ATCC 43816)", "test": "Checkerboard potentiation assay with novobiocin", "type": "cell-based", "method": "as §1, §2, §3"}, "[3]": {"test": "Pharmacokinetic analysis after single intravenous dose", "description": "as §4"}, "A. baumannii ATCC 17978 [4]": {"test_system": "A. baumannii ATCC 17978", "test": "Systemic A. baumannii murine infection model", "type": "in vivo, mouse", "method": "Mouse infection models. Animal experiments were conducted according to guidelines set by the Canadian Council on Animal Care using protocols approved by the Animal Review Ethics Board at McMaster University under Animal Use Protocol #20-12-43. Before infection, mice were relocated at random from a housing cage to treatment or control cages. No animals were excluded from analyses, and blinding was considered unnecessary. Seven- to nine-week-old female C57BL/6 mice (Charles River) were infected intraperitoneally with ˜2×10^6 CFU of A. baumannii ATCC 17978, with 5% porcine mucin (Sigma-Aldrich). Infections were allowed to establish for 2 h, and treatments were administered intraperitoneally. For the survival study, the clinical endpoint was determined using a five-point body condition score analyzing weight loss, decrease in body temperature, respiratory distress, hampered mobility and hunched posture. Experimental endpoint was defined as five days post-infection for mice not reaching clinical endpoint. For CFU/mL enumeration, animals were infected as described above and euthanized 6 h post-infection, and blood was collected into sterile 2 ml heparinized tubes (BD Scientific) serially diluted in PBS and plated onto solid LB. Plates were incubated overnight at 37° C., and colonies were quantified to determine bacterial load.\nThis was directly compared to the activity of P35 and P36 in this model (all administered at 10 mg/kg) in combination with novobiocin (50 mg/kg).\nFor this experiment the same A. baumannii infection model was used, however, endpoint was defined as 6 h post-infection, at which point blood was collected for CFU/mL enumeration (FIG. 2b)."}, "human red blood cells": {"test_system": "human red blood cells", "test": "Hemolysis in human blood", "settings": "100 μM, 45 min, 37° C."}, "HepG2 cells": {"test_system": "HepG2 cells", "settings": "human, 72 h"}, "[5]": {"test_system": "A. baumannii (ATCC 17978)", "test": "Checkerboard potentiation assay with novobiocin", "type": "cell-based", "settings": "with novobiocin", "method": "as §1, §2"}, "[6]": {"test": "HEK293 cytotoxicity assay (Cell Titer Glo)", "type": "cell-based", "settings": "human, HEK293 cells (ATCC CRL 1573), 48 h treatment, Cell Titer Glo; called AC50 in the text; read-out: HEK293T Cytotoxicity (IC50, μg/mL)", "method": "Cytotoxicity Assays. HEK293 (ATCC CRL 1573) cells were left to adhere for 18 h at 7.5×10^3 cells per well in DMEM containing 10% FBS and 2 mM L-glutamine. Compound was added directly into the well. After 48 h of treatment Promega Cell Titer Glo 2.0® was added, shaken for 10 min, and luminescence read (Biotek Neo). AC50 values were calculated using a four-parameter logistic curve in GraphPad Prism 9.\nFocusing on only the analogs that retained synergistic activity with novobiocin (FICI≤0.5), half-maximal activity (AC50) values were calculated against HEK293 cells using a CellTiter-Glo® based assay to approximate cell viability. […] Specifically, the FICI value for both P35 and P36 was 0.094 against A. baumannii, while their AC50 values were 235 μg/mL and 200 μg/mL, respectively."}},
  "data": [
    {"smiles": "N=C(N)c1ccc(OCCCCCOc2ccc(C(=N)N)cc2)cc1", "note": "[Pentamidine, pentamidine, reference compound]", "values": [
      {"measurement": "AC50 at 72 h", "setting": "in vitro; HepG2 viability / cell cycle arrest AC50, HepG2, 72 h incubation", "result": "< 0.293", "unit": "µM"},
      {"measurement": "AC50 at 72 h", "setting": "in vitro; Nuclear Size AC50 (μM)", "result": 2.28, "unit": "µM"},
      {"measurement": "AC50 at 72 h", "setting": "in vitro; Phospholipidosis AC50 (μM)", "result": "> 150", "unit": "µM"},
      {"measurement": "LPS Displacement (EC50, μg/mL)", "setting": "LPS from E. coli EH100", "result": 231, "unit": "µg/mL"},
      {"measurement": "Animals rescued in combination with novobiocin (previous work)", "setting": "A. baumannii ATCC 17978 [1]", "result": 100, "unit": "%"},
      {"measurement": "AUC(0-inf)", "setting": "in vivo", "result": 119, "unit": "ng·h/mL"},
      {"measurement": "AUC(0-t)", "setting": "in vivo", "result": 116, "unit": "ng·h/mL"},
      {"measurement": "C0", "setting": "in vivo", "result": 1260, "unit": "ng/mL"},
      {"measurement": "MRT inf", "setting": "in vivo", "result": 24.7, "unit": "min"},
      {"measurement": "MRT last", "setting": "in vivo", "result": 13.7, "unit": "min"},
      {"measurement": "Vd", "setting": "in vivo", "result": 3.45, "unit": "L/kg"},
      {"measurement": "clearance", "setting": "in vivo", "result": 140, "unit": "mL/min/kg"},
      {"measurement": "half-life", "setting": "in vivo", "result": 118, "unit": "min"},
      {"measurement": "FICI PA", "setting": "P. aeruginosa (PA01)", "result": 0.75},
      {"measurement": "FICI KP", "setting": "[2]", "result": 0.375},
      {"measurement": "Adverse effects after single intravenous dose", "setting": "[3]; female C57BL/6 mice, 1 mg/kg i.v. in water", "result": "no adverse effects"},
      {"measurement": "AUCExtra (%)", "setting": "[3]; mouse, 1 mg/kg IV", "result": 2.76, "unit": "%"},
      {"measurement": "AUMCExtra (%)", "setting": "[3]; mouse, 1 mg/kg IV", "result": 45.8, "unit": "%"},
      {"measurement": "Tlast", "setting": "[3]; mouse, 1 mg/kg IV", "result": 4.00, "unit": "h"},
      {"measurement": "Reduction in blood CFU/mL in combination with novobiocin", "setting": "A. baumannii ATCC 17978 [4]; 10 mg/kg + 50 mg/kg novobiocin, 6 h post-infection", "result": 2.08, "unit": "log10"},
      {"measurement": "Animals rescued in combination with novobiocin", "setting": "A. baumannii ATCC 17978 [4]; 10 mg/kg analog + 50 mg/kg novobiocin i.p. 2 h post-infection, endpoint 5 days", "result": 100, "unit": "%"},
      {"measurement": "Hemolysis of human blood", "setting": "human red blood cells", "result": "Neither compound was hemolytic"},
      {"measurement": "AC50", "setting": "HepG2 cells", "result": "> 150000", "unit": "nM"},
      {"measurement": "FICI AB", "setting": "[5]", "result": 0.25},
      {"measurement": "IC50 at 48 h", "setting": "[6]", "result": 73, "unit": "µg/mL"}
    ]}
  ]
}
